Measurements from patent US20140171438A1, “Hybrid Compounds And Methods Of Making And Using The Same” (CELLCEUTIX CORPORATION, priority 2012, published 2014).
Values after ≈ are worked out from the molar mass of the structure shown.

Experiments:
Format in all cases: cell-based
[1] = tested on: Klebsiella pneumoniae ATCC 13883; assay: Antimicrobial activity, MIC, modified microbroth dilution; settings: ATCC13883, K. pneumoniae (13883), 18 hours incubation, read-out: MIC (expressed as MIC50) K. Pnuemnoiae
Method: (§1) The compounds were screened for antimicrobial activity against a number of ATCC bacterial strains. Minimum Inhibitory Concentrations (MIC) of each of the compounds were determined using standard CLSI procedures modified by Hancock protocol against E. Coli ATCC 25922, Staphylococcus aureus ATCC 27660, Enterococcus faecalis ATCC 29212, Pseudomonas aeruginosa ATCC 10145, and Klebsiella pneumoniae ATCC 13883.
(§2) This procedure is a modification of the standard microbroth dilution assay recommended by the National Committee for Clinical Laboratory Standards (NCCLS) which has been developed for determining in vitro antimicrobial activities of cationic agents (Steinberg et al., Antimicrob. Agents Chemother., 1997, 41, 1738; and Yan et al., Antimicrob. Agents Chemother., 2001, 45, 1558). The modifications were made to minimize loss of the antimicrobial agent due to adsorption onto glass or plastic surfaces and by precipitation at high concentrations.
(§3) Three mL of Mueller-Hinton II Broth (cation-adjusted) was inoculated with 5 μL of frozen bacterial stock and incubated at 37° C. on a shaker platform (at 250 rpm) overnight. Compound stock solutions were prepared in DMSO and serial two-fold dilutions of compound were made in 0.01% acetic acid, 0.2% bovine serum albumin directly in the wells of the polypropylene plate at 10 μL/well. […] All samples were performed in duplicate. The overnight bacteria suspension was diluted to approximately 10^6 cfu/mL and inoculated into a polypropylene (Costar) 96-well round bottom plate (90 μL volumes). One set of control wells included broth-only samples with dilution buffer for testing sterility and providing blank values for the assay readings. Vehicle-control wells containing the bacterial suspension with DMSO (no compound) were also included. Following the overnight incubation (18 hours), cell growth was assessed by observing the presence of “acceptable growth”, defined by NCCLS as a ≧2 mm button or definite turbidity.
(§4) Actual results from a representative MIC assay are shown below in Table 1. Data is expressed as MIC50 in μg/mL. The bacterial isolates were as follows: E. coli (25922); S. aureus (27660); E. faecalis (29212); P. aeruginosa (10145); and K. pneumoniae (13883).

[2] = tested on: Enterococcus faecalis ATCC 29212; assay: as above; settings: ATCC29212, E. faecalis (29212), 18 hours incubation, read-out: MIC (expressed as MIC50) E. faecalis
Method: as §1, §2, §3, §4

[3] = tested on: E. Coli ATCC 25922; assay: as above; settings: Escherichia coli, ATCC25922; E. coli (25922); 18 hours incubation; read-out: MIC (expressed as MIC50) E. coli
Method: as §1, §2, §3, §4

[4] = tested on: Staphylococcus aureus ATCC 27660; assay: as above; settings: ATCC27660, S. aureus (27660), 18 hours incubation, read-out: MIC (expressed as MIC50) S. aureus
Method: as §1, §2, §3, §4

[5] = tested on: Pseudomonas aeruginosa ATCC 10145; assay: as above; settings: ATCC10145, P. aeruginosa (10145), 18 hours incubation, read-out: MIC (expressed as MIC50) P. Aeruginosa
Method: as §1, §2, §3, §4

[6] = Cytotoxicity, colorimetric tetrazolium assay; settings: one hour with compound in serum-free media
Method: Cytotoxicity of the compounds was evaluated in a colorimetric assay using a transformed human liver cell line (HepG2, HB-8065) and an embryonic mouse cell line (NIH/3T3 cells, CRL-1658). This assay measures the bioreduction of a novel tetrazolium compound to a soluble formazan product by viable cells. HepG2 cells were seeded in 96 well plates at 2×10^4 cells/well in MEM medium with 10% fetal bovine serum (FBS) for 24 hours prior to use. NIH/3T3 cells were seeded in 96 well plates at 2×10^4 cells/well in DMEM medium with 10% bovine calf serum (BCS) 24 hours prior to use. Cell monolayers were rinsed in serum-free media and incubated for one hour with the compound in serum-free media. After incubation, the media was replaced with serum supplemented media and live cells were measured using the Cell Titer 96 Aqueous […] (Promega, Madison, Wis.). EC50 values were determined using a four parameter logistic equation: Y=Bottom+(Top−Bottom)/(1+10̂((Log EC50−X)*HillSlope)). Actual results from a representative cytotoxicity assay are shown below in Table 2. Data is expressed as EC50 in μg/mL.

[7] = mouse, NIH/3T3 cells (CRL-1658)

SMILES	MIC50 [1] [mg/L]	MIC50 [2] [mg/L]	MIC50 [3] [mg/L]	MIC50 [4] [mg/L]	MIC50 [5] [mg/L]	MIC [1] [mg/L]	MIC [2] [mg/L]	MIC [3] [mg/L]	MIC [4] [mg/L]	MIC [5] [mg/L]	EC50 at 1 h ([6]; human, HepG2 cells (HB-8065)) [mg/L]	EC50 at 1 h [6, 7] [mg/L]
NCCCc1cc(NC(=O)Nc2ccc(SCCN)c(C(F)(F)F)c2)ccc1Oc1ccc(NCCN)c(C(F)(F)F)c1 [Compound 114, 1-[4-[4-(2-aminoethylamino)-3-(trifluoromethyl)phenoxy]-3-(3-aminopropyl)phenyl]-3-[4-(2-aminoethylsulfanyl)-3-(trifluoromethyl)phenyl]urea]	12.5 (≈ 19.8 µM)	1.56 (≈ 2.47 µM)	6.25 (≈ 9.91 µM)	1.56 (≈ 2.47 µM)	3.13 (≈ 4.96 µM)						238 (≈ 377 µM)	160 (≈ 254 µM)
N=C(N)NCCCCC(=O)Nc1cc(C(F)(F)F)cc(NC(=O)Nc2cccc(Oc3cc(NC(=N)N)cc(C(F)(F)F)c3)c2)c1O[C@@H]1CCNC1 [Compound 116, 5-guanidino-N-[3-[[3-[3-guanidino-5-(trifluoromethyl)phenoxy]phenyl]carbamoylamino]-2-[(3R)-pyrrolidin-3-yl]oxy-5-(trifluoromethyl)phenyl]pentanamide]	12.5 (≈ 16.9 µM)	12.5 (≈ 16.9 µM)	3.13 (≈ 4.24 µM)	0.39 (≈ 0.528 µM)	6.25 (≈ 8.46 µM)							
N=C(N)NCCCCC(=O)Nc1cc(C(F)(F)F)cc(NC(=O)Nc2ccc(Oc3cc(N)cc(C(F)(F)F)c3)cc2)c1SCCN [Compound 102, (4-(2-(2-aminoethylthio)-3-(3-(4-(3-amino-5-(trifluoromethyl)phenoxy)phenyl)ureido)-5-(trifluoromethyl)phenylcarbamoyl)butyl) guanidine]	6.25 (≈ 9.1 µM)	6.25 (≈ 9.1 µM)	3.13 (≈ 4.56 µM)	0.78 (≈ 1.14 µM)	12.5 (≈ 18.2 µM)						68 (≈ 99 µM)	36.7 (≈ 53.4 µM)
NCC#Cc1cc(-n2ccc3cc([N+](=O)[O-])ccc32)cc(C(F)(F)F)c1 [Compound 115]						25 (≈ 69.6 µM)	25 (≈ 69.6 µM)	25 (≈ 69.6 µM)	6.25 (≈ 17.4 µM)	7.5 (≈ 20.9 µM)	74.3 (≈ 207 µM)	43.3 (≈ 121 µM)
N=C(N)NCCCCC(=O)Nc1cc(C(F)(F)F)cc(NC(=O)Nc2cccc(Oc3cc(NCCCN)cc(C(F)(F)F)c3)c2)c1O[C@@H]1CCNC1 [Compound 118, N-[3-[[3-[3-(3-aminopropylamino)-5-(trifluoromethyl)phenoxy]phenyl]carbamoylamino]-2-[(3R)-pyrrolidin-3-yl]oxy-5-(trifluoromethyl)phenyl]-5-guanidino-pentanamide]	3.13 (≈ 4.15 µM)	3.13 (≈ 4.15 µM)	3.13 (≈ 4.15 µM)	0.195 (≈ 0.259 µM)	6.25 (≈ 8.29 µM)							
N=C(N)NCCCCC(=O)Nc1cc(C(F)(F)F)cc(NC(=O)Nc2ccc(Oc3cc(N)cc(C(F)(F)F)c3)cc2)c1O[C@@H]1CCNC1 [Compound 103, (4-(2-((R)-pyrrolidin-3-yloxy)-3-(3-(4-(3-amino-5-(trifluoromethyl)phenoxy)phenyl)ureido)-5-(trifluoromethyl)phenylcarbamoyl)butyl)guanidine]	12.5 (≈ 17.9 µM)	12.5 (≈ 17.9 µM)	3.13 (≈ 4.49 µM)	0.78 (≈ 1.12 µM)	12.5 (≈ 17.9 µM)							
N=C(N)NCCCCC(=O)Nc1cc(C(F)(F)F)cc(NC(=O)Nc2cccc(Oc3cc(NC(=N)N)cc(C(F)(F)F)c3)c2)c1SCCN [Compound 107, N-[2-(2-aminoethylsulfanyl)-3-[[3-[3-guanidino-5-(trifluoromethyl)phenoxy]phenyl]carbamoylamino]-5-(trifluoromethyl)phenyl]-5-guanidino-pentanamide]	12.5 (≈ 17.2 µM)	12.5 (≈ 17.2 µM)	3.13 (≈ 4.3 µM)	0.39 (≈ 0.535 µM)	6.25 (≈ 8.58 µM)							

The remaining compounds from weak to strong by MIC50 [1], led by results:

MIC50 [1] [mg/L]	MIC50 [2] [mg/L]	MIC50 [3] [mg/L]	MIC50 [4] [mg/L]	MIC50 [5] [mg/L]	MIC [1] [mg/L]	MIC [2] [mg/L]	MIC [3] [mg/L]	MIC [4] [mg/L]	MIC [5] [mg/L]	SMILES	EC50 at 1 h ([6]; human, HepG2 cells (HB-8065)) [mg/L]	EC50 at 1 h [6, 7] [mg/L]
3.13 (≈ 3.98 µM)	1.56 (≈ 1.98 µM)	3.13 (≈ 3.98 µM)	3.13 (≈ 3.98 µM)	6.25 (≈ 7.94 µM)						N=C(N)NCCCCC(=O)Nc1cc(C(F)(F)F)cc(NC(=O)Nc2ccc(Oc3ccc(NCCN)c(C(F)(F)F)c3)c(CCCN)c2)c1SCCN [Compound 108, N-[3-[[4-[4-(2-aminoethylamino)-3-(trifluoromethyl)phenoxy]-3-(3-aminopropyl)phenyl]carbamoylamino]-2-(2-aminoethylsulfanyl)-5-(trifluoromethyl)phenyl]-5-guanidino-pentanamide]	395 (≈ 502 µM)	186 (≈ 236 µM)
3.13 (≈ 4.21 µM)	3.13 (≈ 4.21 µM)	1.56 (≈ 2.1 µM)	0.39 (≈ 0.524 µM)	6.25 (≈ 8.4 µM)						N=C(N)NCCCCC(=O)Nc1cc(C(F)(F)F)cc(NC(=O)Nc2cccc(Oc3cc(NCCCN)cc(C(F)(F)F)c3)c2)c1SCCN [Compound 117]		
3.13 (≈ 3.06 µM)	1.56 (≈ 1.53 µM)	1.56 (≈ 1.53 µM)	0.098 (≈ 0.0959 µM)	25 (≈ 24.5 µM)						N=C(N)NCCCCC(=O)Nc1cc(C(F)(F)F)cc(NC(=O)Nc2ccc3nc(NC(=O)Nc4cc(C(F)(F)F)cc(NC(=O)CCCCNC(=N)N)c4O[C@@H]4CCNC4)sc3c2)c1O[C@@H]1CCNC1 [Compound 112, 5-guanidino-N-[3-[[2-[[3-(5-guanidinopentanoylamino)-2-[(3R)-pyrrolidin-3-yl]oxy-5-(trifluoromethyl)phenyl]carbamoylamino]-1,3-benzothiazol-6-yl]carbamoylamino]-2-[(3R)-pyrrolidin-3-yl]oxy-5-(trifluoromethyl)phenyl]pentanamide]	105 (≈ 103 µM)	52.5 (≈ 51.4 µM)
3.13 (≈ 3.12 µM)	3.13 (≈ 3.12 µM)	3.13 (≈ 3.12 µM)	0.195 (≈ 0.195 µM)	12.5 (≈ 12.5 µM)						N=C(N)NCCCCC(=O)Nc1cc(C(F)(F)F)cc(NC(=O)Nc2ccc3nc(NC(=O)Nc4cc(C(F)(F)F)cc(NC(=O)CCCCNC(=N)N)c4SCCN)sc3c2)c1SCCN [Compound 111, N-[2-(2-aminoethylsulfanyl)-3-[[2-[[2-(2-aminoethylsulfanyl)-3-(5-guanidinopentanoylamino)-5-(trifluoromethyl)phenyl]carbamoylamino]-1,3-benzothiazol-6-yl]carbamoylamino]-5-(trifluoromethyl)phenyl]-5-guanidino-pentanamide]	54 (≈ 53.9 µM)	50.1 (≈ 50 µM)
1.56 (≈ 2.14 µM)	1.56 (≈ 2.14 µM)	0.78 (≈ 1.07 µM)	0.195 (≈ 0.267 µM)	3.13 (≈ 4.29 µM)						N=C(N)NCCCCC(=O)Nc1cc(C(F)(F)F)cc(NC(=O)Nc2ccc(Oc3cc(NCCN)cc(C(F)(F)F)c3)cc2)c1SCCN [Compound 106, (4-(2-(2-aminoethylthio)-3-(3-(4-(3-(2-aminoethylamino)-5-(trifluoromethyl)phenoxy)phenyl)ureido)-5-(trifluoromethyl)phenylcarbamoyl)butyl) guanidine]	61.8 (≈ 84.7 µM)	52.6 (≈ 72.1 µM)
1.56 (≈ 2.1 µM)	0.78 (≈ 1.05 µM)	1.56 (≈ 2.1 µM)	0.195 (≈ 0.262 µM)	3.13 (≈ 4.21 µM)						N=C(N)NCCCCC(=O)Nc1cc(C(F)(F)F)cc(NC(=O)Nc2ccc(Oc3cc(NCCCN)cc(C(F)(F)F)c3)cc2)c1SCCN [Compound 105, (4-(2-(2-aminoethylthio)-3-(3-(4-(3-(3-aminopropylamino)-5-(trifluoromethyl)phenoxy)phenyl)ureido)-5-(trifluoromethyl)phenylcarbamoyl)butyl)guanidine]	40 (≈ 53.8 µM)	49.4 (≈ 66.4 µM)
